# Test system: STING (IRF pathway reporter in THP1-Dual™ cells, THP-1 (HAQ))
# Assay: Reporter gene expression assay in THP-1 cells (THP1-Dual, IRF pathway Lucia luciferase, 2′,3′-cGAMP stimulation)
# Type: cell-based, human
# Settings: 10 min preincubation, 5 μM 2′,3′-cGAMP, 20 hr, IRF pathway luciferase (QUANTI-Luc), IC50 range class
# Protocol: THP1-Dual™ cells (Invivogen) were derived from the human THP-1 monocyte cell line by stable integration of two inducible reporter constructs. As a result, THP1-Dual™ cells allow the simultaneous study of the IRF pathway, by assessing the activity of a secreted luciferase (Lucia) and the NF-κB pathway, by monitoring the activity of secreted SEAP. 5×10^4 THP1-Dual™ cells were seeded in 384-well plates in growth medium and preincubated with novel compounds for 10 minutes followed by stimulation with 5 μM 2′,3′-cGAMP. After 20 hr of stimulation the supernatant was removed and the IRF pathway reporter protein was readily measured in the cell culture supernatant using QUANTI-Luc™ (Invivogen), a luciferase detection reagent on a Spectramax i3X luminometer.
# In the tables below, IC50 value ranges for exemplary compounds are given. The IC50 ranges are indicated as “A” for values less than or equal to 1 μM, “B” for values greater than 1 μM and less than or equal to 10 μM, and “C” for values greater than 10 μM.
row,IC50 [µM],Structure (SMILES)
1,1 to 10,"CN(C)C(=O)CC(NC(=O)Nc1ccc2cc[nH]c2c1)c1ccc2c(c1)N(Cc1ccccc1)CCS2 (single isomer, unassigned) [Example 6, 3-(3-(1H-indol-6-yl)ureido)-3-(4-benzyl-3,4-dihydro-2H-benzo[b][1,4]thiazin-6-yl)-N,N-dimethylpropanamide]"
2,> 10,"O=C(Nc1ccc2cc[nH]c2c1)NC(CC(O)CO)c1ccc2c(c1)N(Cc1ccccc1)CCO2 (single isomer, unassigned) [Example 8, 1-(1-(4-Benzyl-3,4-dihydro-2H-benzo[b][1,4]oxazin-6-yl)-3,4-dihydroxybutyl)-3-(1H-indol-6-yl)urea]"
3,≤ 1,"O=C(Nc1ccc2cc[nH]c2c1)NC(CO)c1ccc2c(c1)N(Cc1ccccc1)CCS2 (single isomer, unassigned) [Example 13, 1-(1-(4-benzyl-3,4-dihydro-2H-benzo[b][1,4]thiazin-6-yl)-2-hydroxyethyl)-3-(1H-indol-6-yl)urea]"

# Same assay, conditions: Homo sapiens, 10 min preincubation, 5 μM 2′,3′-cGAMP, 20 hr, IRF pathway luciferase (QUANTI-Luc), IC50 range class
row,Structure (SMILES),IC50 [µM]
1,"CN(C)C(=O)CC(NC(=O)Nc1ccc2cc[nH]c2c1)c1ccc2c(c1)N(Cc1ccccc1)CCS2 (racemic) [Example 4, 3-(3-(1H-indol-6-yl)ureido)-3-(4-benzyl-3,4-dihydro-2H-benzo[b][1,4]thiazin-6-yl)-N,N-dimethylpropanamide]",1 to 10
2,"CN(C)C(=O)CC(NC(=O)Nc1ccc2cc[nH]c2c1)c1ccc2c(c1)N(Cc1ccccc1)CCS2 (single isomer, unassigned) [Example 5, 3-(3-(1H-indol-6-yl)ureido)-3-(4-benzyl-3,4-dihydro-2H-benzo[b][1,4]thiazin-6-yl)-N,N-dimethylpropanamide]",1 to 10
3,"O=C(Nc1ccc2cc[nH]c2c1)NC(CC(O)CO)c1ccc2c(c1)N(Cc1ccccc1)CCO2 (single isomer, unassigned) [Example 7, 1-(1-(4-Benzyl-3,4-dihydro-2H-benzo[b][1,4]oxazin-6-yl)-3,4-dihydroxybutyl)-3-(1H-indol-6-yl)urea]",> 10
4,"O=C(NCc1ccc2c(c1)OCC(=O)N2Cc1ccccc1)Nc1ccc2cc[nH]c2c1 [Example 2, 1-((4-Benzyl-3-oxo-3,4-dihydro-2H-benzo[b][1,4]oxazin-7-yl)methyl)-3-(1H-indol-6-yl)urea]",1 to 10
5,"O=C(O)CC(NC(=O)Nc1ccc2cc[nH]c2c1)c1ccc2c(c1)N(Cc1ccccc1)CCS2 (centres unmarked) [Example 10, 3-(3-(1H-Indol-6-yl)ureido)-3-(4-benzyl-3,4-dihydro-2H-benzo[b][1,4]thiazin-6-yl)propanoic acid]",> 10
6,"O=C(NCc1ccc2c(c1)N(Cc1ccccc1)C(=O)CS2)Nc1ccc2cc[nH]c2c1 [Example 18, 1-((4-benzyl-3-oxo-3,4-dihydro-2H-benzo[b][1,4]thiazin-6-yl)methyl)-3-(1H-indol-6-yl)urea]",1 to 10
7,"O=C(NCc1ccc2c(c1)SCCN2c1ccccc1)Nc1ccc2cc[nH]c2c1 [Example 20, 1-(1H-indol-6-yl)-3-((4-phenyl-3,4-dihydro-2H-benzo[b][1,4]thiazin-7-yl)methyl)urea]",1 to 10
8,"O=C(NCc1ccc2c(c1)OCCN2c1ccccc1)Nc1ccc2cc[nH]c2c1 [Example 21, 1-(1H-indol-6-yl)-3-((4-phenyl-3,4-dihydro-2H-benzo[b][1,4]oxazin-7-yl)methyl)urea]",≤ 1
9,"O=C(Nc1ccc2cc[nH]c2c1)NC(CCN1CCOCC1)c1ccc2c(c1)N(Cc1ccccc1)CCS2 (centres unmarked) [Example 22, 1-(1-(4-benzyl-3,4-dihydro-2H-benzo[b][1,4]thiazin-6-yl)-3-morpholinopropyl)-3-(1H-indol-6-yl)urea]",> 10
10,"NC(=O)CC(NC(=O)Nc1ccc2cc[nH]c2c1)c1ccc2c(c1)N(Cc1ccccc1)CCS2 (centres unmarked) [Example 23, 3-(3-(1H-indol-6-yl)ureido)-3-(4-benzyl-3,4-dihydro-2H-benzo[b][1,4]thiazin-6-yl)propanamide]",≤ 1
11,"O=C(Nc1ccc2cc[nH]c2c1)NC(CCO)c1ccc2c(c1)N(Cc1ccccc1)CCS2 (centres unmarked) [Example 24, 1-(1-(4-benzyl-3,4-dihydro-2H-benzo[b][1,4]thiazin-6-yl)-3-hydroxypropyl)-3-(1H-indol-6-yl)urea]",> 10
12,"O=C(Nc1ccc2cc[nH]c2c1)NC(CC(O)CO)c1ccc2c(c1)N(Cc1ccccc1)CC[S+]2[O-] (centres unmarked) [Example 25, 1-(1-(4-benzyl-1-oxido-3,4-dihydro-2H-benzo[b][1,4]thiazin-6-yl)-3,4-dihydroxybutyl)-3-(1H-indol-6-yl)urea]",> 10
13,"CNC(=O)CC(NC(=O)Nc1ccc2cc[nH]c2c1)c1ccc2c(c1)N(Cc1ccccc1)CCS2 (centres unmarked) [Example 26, 3-(3-(1H-indol-6-yl)ureido)-3-(4-benzyl-3,4-dihydro-2H-benzo[b][1,4]thiazin-6-yl)-N-methylpropanamide]",1 to 10
14,"O=C(Nc1ccc2cc[nH]c2c1)NC(CC(=O)N1CCCC1)c1ccc2c(c1)N(Cc1ccccc1)CCS2 (centres unmarked) [Example 27, 1-(1-(4-benzyl-3,4-dihydro-2H-benzo[b][1,4]thiazin-6-yl)-3-oxo-3-(pyrrolidin-1-yl)propyl)-3-(1H-indol-6-yl)urea]",1 to 10
15,"CON(C)C(=O)CC(NC(=O)Nc1ccc2cc[nH]c2c1)c1ccc2c(c1)N(Cc1ccccc1)CCS2 (centres unmarked) [Example 28, 3-(3-(1H-indol-6-yl)ureido)-3-(4-benzyl-3,4-dihydro-2H-benzo[b][1,4]thiazin-6-yl)-N-methoxy-N-methylpropanamide]",1 to 10
16,"O=C(Nc1ccc2cc[nH]c2c1)NC(CC(=O)N1CCC(O)C1)c1ccc2c(c1)N(Cc1ccccc1)CCS2 (centres unmarked) [Example 29, 1-(1-(4-benzyl-3,4-dihydro-2H-benzo[b][1,4]thiazin-6-yl)-3-(3-hydroxypyrrolidin-1-yl)-3-oxopropyl)-3-(1H-indol-6-yl)urea]",> 10
17,"O=C(Nc1ccc2cc[nH]c2c1)NC(CC(=O)N1CCOCC1)c1ccc2c(c1)N(Cc1ccccc1)CCS2 (centres unmarked) [Example 30, 1-(1-(4-benzyl-3,4-dihydro-2H-benzo[b][1,4]thiazin-6-yl)-3-morpholino-3-oxopropyl)-3-(1H-indol-6-yl)urea]",1 to 10
18,"CN(CCO)C(=O)CC(NC(=O)Nc1ccc2cc[nH]c2c1)c1ccc2c(c1)N(Cc1ccccc1)CCS2 (centres unmarked) [Example 31, 3-(3-(1H-indol-6-yl)ureido)-3-(4-benzyl-3,4-dihydro-2H-benzo[b][1,4]thiazin-6-yl)-N-(2-hydroxyethyl)-N-methylpropanamide]",1 to 10
19,"CN(C(=O)CC(NC(=O)Nc1ccc2cc[nH]c2c1)c1ccc2c(c1)N(Cc1ccccc1)CCS2)C1CC1 (centres unmarked) [Example 32, 3-(3-(1H-indol-6-yl)ureido)-3-(4-benzyl-3,4-dihydro-2H-benzo[b][1,4]thiazin-6-yl)-N-cyclopropyl-N-methylpropanamide]",> 10

# Next, values leading:
row,IC50 [µM],Structure (SMILES)
1,≤ 1,"O=C(Nc1ccc2cc[nH]c2c1)NC(CO)c1ccc2c(c1)N(Cc1ccccc1)CCS2 (racemic) [Example 11, 1-(1-(4-Benzyl-3,4-dihydro-2H-benzo[b][1,4]thiazin-6-yl)-2-hydroxyethyl)-3-(1H-indol-6-yl)urea]"
2,≤ 1,"O=C(Nc1ccc2cc[nH]c2c1)NC(CO)c1ccc2c(c1)N(Cc1ccccc1)CCS2 (single isomer, unassigned) [Example 12, 1-(1-(4-benzyl-3,4-dihydro-2H-benzo[b][1,4]thiazin-6-yl)-2-hydroxyethyl)-3-(1H-indol-6-yl)urea]"
3,≤ 1,"O=C(NCc1ccc2c(c1)N(Cc1ccccc1)CCS2)Nc1ccc2cc[nH]c2c1 [Example 1, 1-((4-Benzyl-3,4-dihydro-2H-benzo[b][1,4]thiazin-6-yl)methyl)-3-(1H-indol-6-yl)urea]"
4,≤ 1,"O=C(NCc1ccc2c(c1)OCCN2Cc1ccccc1)Nc1ccc2cc[nH]c2c1 [Example 3, 1-((4-Benzyl-3,4-dihydro-2H-benzo[b][1,4]oxazin-7-yl)methyl)-3-(1H-indol-6-yl)urea]"
5,≤ 1,"C=CCC(NC(=O)Nc1ccc2cc[nH]c2c1)c1ccc2c(c1)N(Cc1ccccc1)CCS2 (centres unmarked) [Example 9, 1-(1-(4-Benzyl-3,4-dihydro-2H-benzo[b][1,4]thiazin-6-yl)but-3-en-1-yl)-3-(1H-indol-6-yl)urea]"
6,≤ 1,"O=C(NCc1ccc2c(c1)N(c1ccccc1)CCS2)Nc1ccc2cc[nH]c2c1 [Example 14, 1-(1H-Indol-6-yl)-3-((4-phenyl-3,4-dihydro-2H-benzo[b][1,4]thiazin-6-yl)methyl)urea]"
7,≤ 1,"O=C(NCc1ccc2c(c1)N(Cc1ccccc1)CCO2)Nc1ccc2cc[nH]c2c1 [Example 15, 1-((4-benzyl-3,4-dihydro-2H-benzo[b][1,4]oxazin-6-yl)methyl)-3-(1H-indol-6-yl)urea]"
8,≤ 1,"O=C(NCc1ccc2c(c1)SCCN2Cc1ccccc1)Nc1ccc2cc[nH]c2c1 [Example 16, 1-((4-benzyl-3,4-dihydro-2H-benzo[b][1,4]thiazin-7-yl)methyl)-3-(1H-indol-6-yl)urea]"
9,≤ 1,"O=C(NCc1ccc2c(c1)SCC(=O)N2Cc1ccccc1)Nc1ccc2cc[nH]c2c1 [Example 17, 1-((4-benzyl-3-oxo-3,4-dihydro-2H-benzo[b][1,4]thiazin-7-yl)methyl)-3-(1H-indol-6-yl)urea]"
10,≤ 1,"O=C(NCc1ccc2c(c1)N(c1ccccc1)CCO2)Nc1ccc2cc[nH]c2c1 [Example 19, 1-(1H-indol-6-yl)-3-((4-phenyl-3,4-dihydro-2H-benzo[b][1,4]oxazin-6-yl)methyl)urea]"
